Experimental data reported in a compilation of properties of binary mixtures (doi:10.1016/j.fluid.2019.06.006).

Experiment: xn = mol fraction of the nth substance listed
Conditions: 100 kPa

Structure (SMILES) | viscosity (303.15 K, x2 = 0) [mPa·s] | viscosity (323.15 K, x2 = 0) [mPa·s] | viscosity (333.15 K, x2 = 0) [mPa·s] | viscosity (303.15 K, x1 = 0.0941) [mPa·s] | viscosity (303.15 K, x1 = 0.483) [mPa·s] | viscosity (313.15 K, x1 = 0.0941) [mPa·s] | viscosity (313.15 K, x1 = 0.1894) [mPa·s] | viscosity (313.15 K, x1 = 0.483) [mPa·s] | viscosity (313.15 K, x1 = 0.5836) [mPa·s] | viscosity (323.15 K, x1 = 0.0941) [mPa·s] | viscosity (323.15 K, x1 = 0.1894) [mPa·s] | viscosity (323.15 K, x1 = 0.2859) [mPa·s] | viscosity (323.15 K, x1 = 0.483) [mPa·s] | viscosity (323.15 K, x1 = 0.5836) [mPa·s] | viscosity (333.15 K, x1 = 0.0941) [mPa·s] | viscosity (333.15 K, x1 = 0.1894) [mPa·s] | viscosity (333.15 K, x1 = 0.2859) [mPa·s] | viscosity (333.15 K, x1 = 0.483) [mPa·s] | viscosity (333.15 K, x1 = 0.5836) [mPa·s]
CC(=O)[O-].CC[n+]1ccn(C)c1 + OC[C@H](O)[C@@H](O)[C@H](O)[C@H](O)CO | 89.4 | 34.6 | 23.8 | – | – | – | – | – | – | – | – | – | – | – | – | – | – | – | –
OC[C@@H](O)[C@@H](O)[C@H](O)[C@@H](O)CO + CC(=O)[O-].CC[n+]1ccn(C)c1 | – | – | – | 307 | 1491.9 | 155 | 143.2 | 572 | 816 | 88 | 80.7 | 292 | 257 | 348 | 54.4 | 49.5 | 153 | 130.5 | 170.6
